Data reported in patent US9382305B2, “Relaxin fusion polypeptides and uses thereof” (BAYER INTELLECTUAL PROPERTY GMBH, priority 2011, dated 2016).

B1: scR-Fc 13: rat IgG2b Fc (6 Histidine tag) linked via GlyGlySerGlyGlySerGlyGlySerPro to N terminal end of scR4; SEQ ID NO: 28 (protein)
chain: HHHHHHPTCPTCHKCPVPELLGGPSVFIFPPKPKDILLISQNAKVTCVVVDVSEEEPDVQFSWFVNNVEVHTAQTQPREEQYNSTFRVVSALPIQHQDWMSGKEFKCKVNNKALPSPIEKTISKPKGLVRKPQVYVMGPPTEQLTEQTVSLTCLTSGFLPNDIGVEWTSNGHIEKNYKNTEPVMDSDGSFFMYSKLNVERSRWDSRAPFVCSVVHEGLHNHHVEKSISRPPGKGGSGGSGGSPQLYSALANKCCHVGCTKRSLARFCGGGSGGGSGSWMEEVIKLCGRELVRAQIAICGMSTWS

Assays:
[1] = test system: isolated perfused rat heart; assay: Isolated perfused rat heart (Langendorff); parameters: species or system Wistar rats
Protocol: Male Wistar rats (200-250 g) were anesthetized using Narcoren (100 mg/kg i.p.). The heart was rapidly excised and connected to a Langendorff perfusion system (FMI GmbH, Seeheim-Ober Beerbach, Germany). The heart was perfused at a constant rate of 10 ml/min with Krebs-Henseleit bicarbonate buffer solution equilibrated with 95% O2-5% CO2. The perfusion solution contained (in mmol/l): NaCl 118; KCl 3; NaHCO3 22; KH2PO41,2; MgSO4 1,2; CaCl2 1,8; Glucose 10; Na-Pyruvat 2. A pressure transducer registered the perfusion pressure in the perfusion system. The left ventricular pressure (LVP) was measured using a second pressure transducer connected to a water-filled balloon which was inserted into the left ventricle via the left atrium. The end diastolic pressure was initially set to 8 mm Hg by adjusting the volume of the balloon. The hearts were spontaneously beating. The signals from the pressure transducer were amplified, registered and used for the calculation of the heart frequency and +dp/dt by a personal computer.

[2] = intravenously administrated, humans (Dschietzig T. et al. (2009)); cited from earlier work
[3] = In vivo plasma stability: serum levels by quantification ELISA after intravenous administration; settings: male Wistar rats, 240 μg/kg intravenously, three days after application
Protocol: Blood samples were collected at the indicated time points after application and serum levels of each protein were measured by using a quantification ELISA.
At time points 0 hour, 1 hour, 3 days, 5 days, and 7 days after compound administration, blood samples were taken and the concentrations of the Fc-single chain Relaxin and non-modified hRelaxin2 were determined using the commercially available quantification ELISA (R&D Systems, Human Relaxin-2 Quantikine ELISA Kit, catalogue number DRL200).

[4] = target: T1, human LGR7/RXFP1 receptor (Homo sapiens, UniProt Q9HBX9); assay: Relaxin activity of plasma samples from scR-Fc 13 treated rats on CHO-CRE-LGR7 cell line; type: cell-based; settings: plasma 3, 5 and 7 days after intravenous administration to rats
T1 construct: cloned as 2271 base pair long DNA fragment; expressed in transfected cells; host or cells: CHO K1 (ATCC CCL-61) with CRE-luciferase reporter; receptor in pcDNA3.1(-)
T1 sequence (Q9HBX9 1-757): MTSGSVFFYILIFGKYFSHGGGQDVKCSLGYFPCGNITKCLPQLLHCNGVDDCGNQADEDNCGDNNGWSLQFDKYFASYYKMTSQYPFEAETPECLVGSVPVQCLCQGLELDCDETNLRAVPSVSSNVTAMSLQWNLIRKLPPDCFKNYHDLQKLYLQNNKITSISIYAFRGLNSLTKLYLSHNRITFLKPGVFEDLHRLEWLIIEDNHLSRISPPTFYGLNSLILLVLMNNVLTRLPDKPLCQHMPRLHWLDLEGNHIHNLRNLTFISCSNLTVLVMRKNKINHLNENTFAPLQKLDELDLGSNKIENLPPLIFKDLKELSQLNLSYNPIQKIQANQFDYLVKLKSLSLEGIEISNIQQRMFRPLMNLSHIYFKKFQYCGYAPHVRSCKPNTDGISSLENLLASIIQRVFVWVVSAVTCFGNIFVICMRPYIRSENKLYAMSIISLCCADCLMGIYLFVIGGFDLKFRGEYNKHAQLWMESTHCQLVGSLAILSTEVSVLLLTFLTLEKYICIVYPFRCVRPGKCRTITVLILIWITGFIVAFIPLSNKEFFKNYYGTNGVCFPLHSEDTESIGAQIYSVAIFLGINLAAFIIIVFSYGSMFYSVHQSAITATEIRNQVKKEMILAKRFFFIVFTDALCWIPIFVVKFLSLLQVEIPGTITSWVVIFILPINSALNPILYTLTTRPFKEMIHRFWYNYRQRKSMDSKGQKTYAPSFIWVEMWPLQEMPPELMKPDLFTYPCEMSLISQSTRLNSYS
Protocol: Relaxin activity in blood samples obtained from scR-Fc 13 treated rats by using the CHO-CRE-LGR7 cell line was determined. Blood samples collected 3, 5, and 7 days after intravenous administration of scR-Fc 13 were incubated on the CHO-CRE-LGR7 cell line and Relative Lights Units were determined. Calibration curves were determined using hRelaxin 2 (R&D Systems, catalogue number 6586-RN-025) and purified scR-Fc 13. The EC50 within the dose response curve is marked by an X. Data are expressed as Relative Light Units, representing the activity of scR-Fc variants and hRelaxin 2 induced luciferase expression. Symbols represent means, error bars represent S.E.M.

Molecule | contractility (inotropic activity) ([1]; concentration of 1 nM) | coronary flow ([1]; concentration of 1 nM) | heart rate ([1]; concentration of 1 nM) | potency relative to scR-Fc 13 ([1]; isolated perfused rat heart) | coronary flow ([1]; perfusion, FIG. 11) | heart rate ([1]; perfusion, FIG. 11) | left ventricular diastolic pressure ([1]; perfusion, FIG. 11) | left ventricular pressure (+dp/dtmax) ([1]; perfusion, FIG. 11) | half-life [2] | serum concentration (ELISA) [3] | activity of plasma samples [4] | effects on heart rate, coronary flow and contractility compared with hRelaxin 2 ([1]; ten fold higher concentration than hRelaxin 2 (1 nM))
hRelaxin 2: commercially available recombinant expressed human Relaxin 2 (R&D Systems, catalogue number 6586-RN-025), positive control (alpha QLYSALANKCCHVGCTKRSLARFC; beta SWMEEVIKLCGRELVRAQIAICGMSTWS; listed as Homo Sapiens) | negative inotrophic activity | increase | increase | ten fold more potent | significant increase | significant increase | decrease | decrease | less than 10 minutes | undetectable | – | –
B1 | – | – | – | – | significant increase | significant increase | decrease | decrease | – | – | activity could be determined | Comparable effects
